Experiments:
[1] = system: Puccinia recondita f. Sp. Tritici; assay: Fungicidal activity against Puccinia recondita f. sp. tritici / wheat / leaf disc preventative (brown rust); type: in vivo; conditions: foliar, 200 ppm in the applied formulation, wheat leaf segments, preventative, compared to untreated control leaf disks, read-out: disease control
Procedure, shortened: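 Preventative leaf-segment test, wheat cv. Kanzler on water agar. Spray compound at 200 ppm, inoculate with spores 1 day later; 19° C., 75% rh, 12/12 h light. Read-out: % disease control vs untreated, 7 to 9 days after application.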

[2] = system: Glomerella lagenarium (Colletotrichum lagenarium); assay: Fungicidal activity against Glomerella lagenarium (Colletotrichum lagenarium) liquid culture / cucumber / preventative (anthracnose); type: cell-based; conditions: Colletotrichum orbiculare; 20 ppm in the applied formulation; liquid culture (PDB), growth inhibition measured photometrically after 3 to 4 days; compared to untreated control; read-out: disease control
Procedure, shortened: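 Photometric read-out of fungal growth after 2–7 days, expressed as percent antifungal activity versus untreated check. Cryo-stored conidia in PDB; compound at 20 ppm; dark, 24 °C, 96% RH.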

[3] = system: Puccinia recondita f. Sp. Tritici; assay: Fungicidal activity against Puccinia recondita f. sp. tritici / wheat / leaf disc curative (brown rust); type: in vivo; conditions: foliar, 24 h, 200 ppm in the applied formulation, wheat leaf segments, curative (applied 1 day after inoculation), compared to untreated control leaf disks, read-out: disease control
Procedure, shortened: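 Curative test on wheat leaf segments (cv. Kanzler) on agar, inoculated with spore suspension and held dark at 19° C, 75% RH; formulated compound in water applied 1 day after inoculation. Incubated at 19° C, 75% RH, 12 h light/12 h dark; percent disease control versus untreated scored 6 to 8 days after application.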

Phakopsora Pachyrhizi = assay: Fungicidal activity against Phakopsora pachyrhizi / soybean / leaf disc preventative (Asian soybean rust); type: in vivo; conditions: foliar, 200 ppm in the applied formulation, soybean leaf disks, compared to untreated control leaf disks, read-out: disease control
Procedure, shortened: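 Preventative soybean leaf-disc test: discs on water agar sprayed with diluted formulated compound, inoculated one day later with spores on the lower surface. Held 24–36 h dark at 20°C, 75% rh, then 12 h light/day; percent disease control versus untreated discs scored 12–14 days after application.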

CON(Cc1ccc(-c2noc(C(F)(F)F)n2)cc1)C(=O)NC(C)(C)C [Compound 3.19, 3-tert-butyl-1-methoxy-1-[[4-[5-(trifluoromethyl)-1,2,4-oxadiazol-3-yl]phenyl]methyl]urea]
≥ 80%: pest or weed control at 200 ppm [1] | inhibition of growth at 20 ppm [2] | pest or weed control at 200 ppm [3] | pest or weed control at 200 ppm (Phakopsora Pachyrhizi)

N#CCC(=O)N(Cc1ccc(-c2noc(C(F)(F)F)n2)cc1)C1CC1 [Compound 1.146, 2-cyano-N-cyclopropyl-N-[[4-[5-(trifluoromethyl)-1,2,4-oxadiazol-3-yl]phenyl]methyl]-acetamide]
≥ 80%: pest or weed control at 200 ppm [1] | inhibition of growth at 20 ppm [2] | pest or weed control at 200 ppm [3] | pest or weed control at 200 ppm (Phakopsora Pachyrhizi)

C=CCN(Cc1ccc(-c2noc(C(F)(F)F)n2)cc1)C(=O)C(C)OC (stereo not shown) [Compound 1.492, N-allyl-2-methoxy-N-[[4-[5-(trifluoromethyl)-1,2,4-oxadiazol-3-yl]phenyl]methyl]-propanamide]
≥ 80%: pest or weed control at 200 ppm [1] | inhibition of growth at 20 ppm [2] | pest or weed control at 200 ppm [3] | pest or weed control at 200 ppm (Phakopsora Pachyrhizi)

COCCN(Cc1ccc(-c2noc(C(F)(F)F)n2)cc1)C(=O)C1CC1F (stereo not shown) [Compound 1.358, 2-fluoro-N-(2-methoxyethyl)-N-[[4-[5-(trifIuoromethyl)-1,2,4-oxadiazol-3-yl]phenyl]methyl]-cyclopropane-carboxamide]
≥ 80%: pest or weed control at 200 ppm [1] | inhibition of growth at 20 ppm [2] | pest or weed control at 200 ppm [3] | pest or weed control at 200 ppm (Phakopsora Pachyrhizi)

CN(Cc1ccc(-c2noc(C(F)(F)F)n2)cc1)C(=O)C1CCCO1 (stereo not shown) [Compound 1.528, N-methyl-N-[[4-[5-(trifluoromethyl)-1,2,4-oxadiazol-3-yl]phenyl]methyl]-tetrahydrofuran-2-carboxamide]
≥ 80%: pest or weed control at 200 ppm [1] | inhibition of growth at 20 ppm [2] | pest or weed control at 200 ppm [3] | pest or weed control at 200 ppm (Phakopsora Pachyrhizi)

CN(C)C(=O)N(Cc1ccc(-c2noc(C(F)(F)F)n2)cc1)CC(F)(F)F [Compound 3.26, 1,1-dimethyl-3-(2,2,2-trifluoroethyl)-3-[[4-[5-(trifluoromethyl)-1,2,4-oxadiazol-3-yl]phenyl]methyl]urea]
≥ 80%: pest or weed control at 200 ppm [1] | inhibition of growth at 20 ppm [2] | pest or weed control at 200 ppm [3] | pest or weed control at 200 ppm (Phakopsora Pachyrhizi)

CCON(Cc1ccc(-c2noc(C(F)(F)F)n2)cc1)C(C)=O [Compound 1.631, N-ethoxy-N-[[4-[5-(trifluoromethyl)-1,2,4-oxadiazol-3-yl]phenyl]methyl]-acetamide]
≥ 80%: pest or weed control at 200 ppm [1] | inhibition of growth at 20 ppm [2] | pest or weed control at 200 ppm [3] | pest or weed control at 200 ppm (Phakopsora Pachyrhizi)

C#CCN(Cc1ccc(-c2noc(C(F)(F)F)n2)cc1)C(=O)C1CC1(C)C (stereo not shown) [Compound 1.189, 2,2-dimethyl-N-prop-2-ynyl-N-[[4-[5-(trifluoromethyl)-1,2.4-oxadiazol-3-yl]phenyl]methyl]-cyclopropane-carboxamide]
≥ 80%: pest or weed control at 200 ppm [1] | inhibition of growth at 20 ppm [2] | pest or weed control at 200 ppm [3] | pest or weed control at 200 ppm (Phakopsora Pachyrhizi)

O=C(ON(Cc1ccc(-c2noc(C(F)(F)F)n2)cc1)C(=O)C1CCOC1)C1CCOC1 (stereo not shown) [Compound 1.757, [tetrahydrofuran-3-carbonyl-[[4-[5-(trifluoromethyl)-1,2,4-oxadiazol-3-yl]phenyl]methyl]-amino] tetrahydrofuran-3-carboxylate]
≥ 80%: pest or weed control at 200 ppm [1] | inhibition of growth at 20 ppm [2] | pest or weed control at 200 ppm [3] | pest or weed control at 200 ppm (Phakopsora Pachyrhizi)

CCC(C)N(Cc1ccc(-c2noc(C(F)(F)F)n2)cc1)C(=O)C(C)C (stereo not shown) [Compound 1.369, 2-methyl-N-sec-butyl-N-[[4-[5-(trifluoromethyl)-1,2,4-oxadiazol-3-yl]phenyl]methyl]-propanamide]
≥ 80%: pest or weed control at 200 ppm [1] | inhibition of growth at 20 ppm [2] | pest or weed control at 200 ppm [3] | pest or weed control at 200 ppm (Phakopsora Pachyrhizi)

COCCC(=O)N(Cc1ccc(-c2noc(C(F)(F)F)n2)cc1)C1COC1 [Compound 1.741, 3-methoxy-N-(oxetan-3-yl)-N-[[4-[5-(trifluoromethyl)-1,2,4-oxadiazol-3-yl]phenyl]methyl]-propanamide]
≥ 80%: pest or weed control at 200 ppm [1] | inhibition of growth at 20 ppm [2] | pest or weed control at 200 ppm [3] | pest or weed control at 200 ppm (Phakopsora Pachyrhizi)

COCC(=O)N(CCO)Cc1ccc(-c2noc(C(F)(F)F)n2)cc1 [Compound 1.610, N-(2-hydroxyethyl)-2-methoxy-N-[[4-[5-(trifluoromethyl)-1,2,4-oxadiazol-3-yl]phenyl]methyl]-acetamide]
≥ 80%: pest or weed control at 200 ppm [1] | inhibition of growth at 20 ppm [2] | pest or weed control at 200 ppm [3] | pest or weed control at 200 ppm (Phakopsora Pachyrhizi)

C#CCN(Cc1ccc(-c2noc(C(F)(F)F)n2)cc1)C(=O)CCC=C [Compound 1.159, N-prop-2-ynyl-N-[[4-[5-(trifluoromethyl)-1,2,4-oxadiazol-3-yl]phenyl]methyl]-pent-4-enamide]
≥ 80%: pest or weed control at 200 ppm [1] | inhibition of growth at 20 ppm [2] | pest or weed control at 200 ppm [3] | pest or weed control at 200 ppm (Phakopsora Pachyrhizi)

CCCN(Cc1ccc(-c2noc(C(F)(F)F)n2)cc1)C(=O)C1CCCO1 (stereo not shown) [Compound 1.663, N-propyl-N-[[4-[5-(trifluoromethyl)-1,2,4-oxadiazol-3-yl]pheny1]methyl]-tetrahydrofuran-2-carboxamide]
≥ 80%: pest or weed control at 200 ppm [1] | inhibition of growth at 20 ppm [2] | pest or weed control at 200 ppm [3] | pest or weed control at 200 ppm (Phakopsora Pachyrhizi)

CON(Cc1ccc(-c2noc(C(F)(F)F)n2)cc1)C(=O)c1ccccc1Cl [Compound 1.44, 2-chloro-N-methoxy-N-[[4-[5-(trifluoromethyl)-1,2,4-oxadiazol-3-yl]phenyl]methyl]-benzamide]
≥ 80%: pest or weed control at 200 ppm [1] | inhibition of growth at 20 ppm [2] | pest or weed control at 200 ppm [3] | pest or weed control at 200 ppm (Phakopsora Pachyrhizi)

CCC(C)N(Cc1ccc(-c2noc(C(F)(F)F)n2)cc1)C(=O)CCCOC (stereo not shown) [Compound 1.408, 4-methoxy-N-sec-butyl-N-[[4-[5-(trifluoromethyl)-1,2,4-oxadiazol-3-yl]phenyl]methyl]-butanamide]
≥ 80%: pest or weed control at 200 ppm [1] | inhibition of growth at 20 ppm [2] | pest or weed control at 200 ppm [3] | pest or weed control at 200 ppm (Phakopsora Pachyrhizi)

CON(Cc1ccc(-c2noc(C(F)(F)F)n2)cc1)C(=O)CC1CC1(F)F (stereo not shown) [Compound 1.64, 2-(2.2-difluorocyclopropyl)-N-methoxy-N-[[4-[5-(trifluoromethyl)-1,2,4-oxadiazol-3-yl]phenyl]methyl]-acetamide]
≥ 80%: pest or weed control at 200 ppm [1] | inhibition of growth at 20 ppm [2] | pest or weed control at 200 ppm [3] | pest or weed control at 200 ppm (Phakopsora Pachyrhizi)

O=C(C1CCCO1)N(CCO)Cc1ccc(-c2noc(C(F)(F)F)n2)cc1 (stereo not shown) [Compound 1.726, N-(2-hydroxyethyl)-N-[[4-[5-(trifluoromethyl)-1,2,4-oxadiazol-3-yl]phenyl]methyl]-tetrahydrofuran-2-carboxamido]
≥ 80%: pest or weed control at 200 ppm [1] | inhibition of growth at 20 ppm [2] | pest or weed control at 200 ppm [3] | pest or weed control at 200 ppm (Phakopsora Pachyrhizi)

CC1(C(=O)N(Cc2ccc(-c3noc(C(F)(F)F)n3)cc2)C2CC2)CC1 [Compound 1.118, N-cyclopropyl-1-methyl-N-[[4-[5-(trifluoromethyl)-1,2,4-oxadiazol-3-yl]phenyl]methyl]-cyclopropane-carboxamide]
≥ 80%: pest or weed control at 200 ppm [1] | inhibition of growth at 20 ppm [2] | pest or weed control at 200 ppm [3] | pest or weed control at 200 ppm (Phakopsora Pachyrhizi)

O=C(N(Cc1ccc(-c2noc(C(F)(F)F)n2)cc1)C1CC1)C1(C(F)(F)F)CC1 [Compound 1.83, N-cyclopropyl-1-(trifluoromethyl)-N-[[4-[5-(trifluoromethyl)-1,2,4-oxadiazol-3-yl]phenyl]methyl]-cyclopropane-carboxamide]
≥ 80%: pest or weed control at 200 ppm [1] | inhibition of growth at 20 ppm [2] | pest or weed control at 200 ppm [3] | pest or weed control at 200 ppm (Phakopsora Pachyrhizi)

CCN(Cc1ccc(-c2noc(C(F)(F)F)n2)cc1)C(=O)C1OCCO1 [Compound 1.513, N-ethyl-N-[[4-[5-(trifluoromethyl)-1,2,4-oxadiazol-3-yl]phenyl]methyl]-1,3-dioxolane-2-carboxamide]
≥ 80%: pest or weed control at 200 ppm [1] | inhibition of growth at 20 ppm [2] | pest or weed control at 200 ppm [3] | pest or weed control at 200 ppm (Phakopsora Pachyrhizi)

CCC(C)N(Cc1ccc(-c2noc(C(F)(F)F)n2)cc1)C(=O)COCCOC (stereo not shown) [Compound 1.384, 2-(2-methoxyethoxy)-N-sec-butyl-N-[[4-[5-(trifluoromethyl)-1,2,4-oxadiazol-3-yl]phenyl]methyl]-acetamide]
≥ 80%: pest or weed control at 200 ppm [1] | inhibition of growth at 20 ppm [2] | pest or weed control at 200 ppm [3] | pest or weed control at 200 ppm (Phakopsora Pachyrhizi)

From patent US11180462B2, “Microbiocidal oxadiazole derivatives” (SYNGENTA PARTICIPATIONS AG, priority 2015, dated 2021)
